Source: PubChem BioAssay (NCI)
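48-hour exposure; five concentrations; linearly interpolated endpoints. GI50 = concentration required for 50% inhibition of growth. TGI denotes the concentration required for complete inhibition of growth.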

Tests used:
Experiment in all cases: inhibition of tumour cell growth, NCI panel, 48 h
RPMI-8226 leukemia = system: RPMI-8226 leukemia
HOP-92 NSCLC = system: HOP-92 NSCLC
SF-268 CNS = system: SF-268 CNS
NCI-H522 lung = system: NCI-H522 lung
HCT-116 colon = system: HCT-116 colon
NCI-H226 lung = system: NCI-H226 lung
NCI-H460 lung = system: NCI-H460 lung
RXF 393 renal = system: RXF 393 renal
UACC-257 melanoma = system: UACC-257 melanoma
OVCAR-5 ovarian = system: OVCAR-5 ovarian

Structure (SMILES) | GI50 (RPMI-8226 leukemia) [µM] | TGI (RPMI-8226 leukemia) [µM] | GI50 (HOP-92 NSCLC) [µM] | TGI (HOP-92 NSCLC) [µM] | GI50 (SF-268 CNS) [µM] | TGI (SF-268 CNS) [µM] | GI50 (NCI-H522 lung) [µM] | TGI (NCI-H522 lung) [µM] | GI50 (HCT-116 colon) [µM] | TGI (HCT-116 colon) [µM] | GI50 (NCI-H226 lung) [µM] | TGI (NCI-H226 lung) [µM] | GI50 (NCI-H460 lung) [µM] | TGI (NCI-H460 lung) [µM] | GI50 (RXF 393 renal) [µM] | TGI (RXF 393 renal) [µM] | GI50 (UACC-257 melanoma) [µM] | TGI (UACC-257 melanoma) [µM] | GI50 (OVCAR-5 ovarian) [µM] | TGI (OVCAR-5 ovarian) [µM]
CCN(Cc1ccccc1)c1ccc(CO)c(Cl)c1 | 5.53 | 44.7 | 1.67 | 15.3 | 26.7 | > 70.6 | 17.4 | 63.4 | 0.11 | 10.2 | 0.0913 | 0.233 | 0.327 | 13.9 | 6.01 | > 49.7 | 0.131 | 0.316 | 0.164 | 0.593
CCC(=O)Nc1ccccc1C#C/C=C\C#Cc1ccccc1SC | 1.26 | 11.7 | 3.96 | 78.7 | 12.3 | > 100 | 8.89 | > 100 | 5.61 | > 100 | 16.9 | > 100 | 3.4 | > 100 |  | 1.84 | 12.1 | 59.2 | 33.3 | > 100
O=c1ccs[nH]1 |  | 21.8 |  | 32.2 |  | 35.4 |  | 1.75 |  | 38.3 |  | 71.6 |  | 34.3 |  | 21 |  | 33.2 |  | 36.3
c1cc(N2CCCN(c3ccc(C4=NCCCN4)cc3)CC2)ccc1C1=NCCCN1 | > 100 | > 100 | > 100 | > 100 | > 100 | > 100 | > 100 | > 100 | > 100 | > 100 | > 100 | > 100 | 36.7 | > 100 | > 100 | > 100 | > 100 | > 100 | > 100 | > 100
